# Reference: publication PMC9578396, “Intrinsic Antibacterial Activity of Xeruborbactam In Vitro: Assessing Spectrum and Mode of Action” (Antimicrobial Agents and Chemotherapy, 2022)
# “And” between values parts separate entries of the source, which are not always exact repeats. Identical values can stand only once. Like-named read-outs stand apart in the source and are kept apart here.
# Test system: Klebsiella pneumoniae
# Assay: microbe, parasite or virus in culture
# Type: cell-based
# Conditions: for MIC90: read-out: MIC90
# Summary of the method: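 MICs by CLSI broth microdilution in in-house panels. Strains tested were engineered strains carrying porin and efflux mutation combinations, KPC-producing clinical isolates and derivatives cured of KPC plasmids, and KPC-producing clinical isolates enriched for porin mutations.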
# [1] = Klebsiella pneumoniae, 575 isolates
# [2] = Klebsiella pneumoniae, K. pneumoniae CRE, 418 isolates
# [3] = Klebsiella pneumoniae, K. pneumoniae CRE, KPC, 163 isolates
# [4] = Klebsiella pneumoniae, K. pneumoniae CRE, OXA-48-like, 89 isolates
# [5] = Klebsiella pneumoniae, K. pneumoniae CRE, metallo-beta-lactamase, 126 isolates
# [6] = Klebsiella pneumoniae, K. pneumoniae CRE, non-carbapenemase producing, 40 isolates
# [7] = Klebsiella pneumoniae, K. pneumoniae ESBL phenotype, 157 isolates
# [8] = Klebsiella pneumoniae, KPC-producing clinical strains with functional OmpK36, alone
# [9] = Klebsiella pneumoniae, KPC-producing clinical strains with nonfunctional OmpK36, alone
# [10] = Klebsiella pneumoniae, KPC-producing clinical strains, all strains (n = 141), alone
smiles,measurement,setting,value
O=C(O)c1c(F)ccc2c1OB(O)[C@@H]1C[C@H]21 [Xeruborbactam],isolates with MIC values in an 8- to 16-μg/mL range,228 isolates with the full-length OmpK36,~ 95%
same,MIC range,"K. pneumoniae ESBL phenotype, 157 isolates",4 to 32 µg/mL
same,percentage of strains with xeruborbactam MIC values ≥32 µg/ml,"K. pneumoniae clinical isolates, OmpK36 full length (n=228)",5.3%
same,MIC,Klebsiella pneumoniae KPM1001 (ATCC 49816),16 µg/mL
same,MIC,"Klebsiella pneumoniae KPM1001 (ATCC 49816), read-out: MIC",72 µM
same,MIC50,[1],16 µg/mL
same,MIC90,[1],32 µg/mL
same,MIC,"Klebsiella pneumoniae, ATCC49816, Klebsiella pneumoniae KPM1001 (ATCC 49816), read-out: MIC",72 µM and 16 µg/mL
same,MIC,"Klebsiella pneumoniae, BAA2814, KPC-3-producing KP1074 (BAA-2814), xeruborbactam none, read-out: MIC",16 to 32 µg/mL
same,MIC50,[2],16 µg/mL
same,MIC90,[2],32 µg/mL
same,MIC50,[3],16 µg/mL
same,MIC90,[3],32 µg/mL
same,MIC50,[4],16 µg/mL
same,MIC90,[4],64 µg/mL
same,MIC50,[5],16 µg/mL
same,MIC90,[5],32 µg/mL
same,MIC50,[6],16 µg/mL
same,MIC90,[6],32 µg/mL
same,MIC50,[7],16 µg/mL
same,MIC90,[7],16 µg/mL
same,MIC50,[8],16 µg/mL
same,MIC90,[8],> 16 µg/mL
same,MIC50,[9],> 16 µg/mL
same,MIC90,[9],> 16 µg/mL
same,MIC50,[10],> 16 µg/mL
same,MIC90,[10],> 16 µg/mL
same,MIC,"Klebsiella pneumoniae, KPM1026a (no beta-lactamase), xeruborbactam 0 µg/ml, read-out: MIC",16 µg/mL
same,MIC,"Klebsiella pneumoniae, KPM1026a, alone, read-out: MIC",16 µg/mL
same,MIC,"Klebsiella pneumoniae, KPM1026a, parent, read-out: MIC",16 µg/mL
same,MIC,"Klebsiella pneumoniae, KPM1211 (KP1074 after loss of pKpQIL), read-out: MIC",16 to 32 µg/mL
same,MIC,"Klebsiella pneumoniae, KPM1271 (KPC-3; wild type), alone, read-out: MIC",16 µg/mL
same,MIC,"Klebsiella pneumoniae, KPM1271 (KPM1026a/KPC-3), alone, read-out: MIC",16 µg/mL
same,MIC,"Klebsiella pneumoniae, KPM1272 (KPC-3; ramR_fs), alone, read-out: MIC",16 µg/mL
same,MIC,"Klebsiella pneumoniae, KPM1273 (KPC-3; ramR_fs ompK36_1171), alone, read-out: MIC",64 µg/mL
same,MIC,"Klebsiella pneumoniae, KPM1281 (KPM1026a/NDM-1), alone, read-out: MIC",16 µg/mL
same,MIC,"Klebsiella pneumoniae, KPM2067 (KPC-3; ompK36_fs), alone, read-out: MIC",16 µg/mL
same,MIC,"Klebsiella pneumoniae, KPM2601 (KPC-3; ΔompK35), alone",16 µg/mL
same,MIC,"Klebsiella pneumoniae, KPM2631 (KPC-3; ompK36_fs ΔompK35), alone",32 µg/mL
same,MIC,"Klebsiella pneumoniae, KPM3532 (TolQ::M189K), alone",32 µg/mL
same,MIC,"Klebsiella pneumoniae, KPM3532, TolQ::M189K",32 µg/mL
same,MIC,"Klebsiella pneumoniae, KPM3534 (TolQ::S31F), alone",32 µg/mL
same,MIC,"Klebsiella pneumoniae, KPM3534, TolQ::S31F",32 µg/mL
same,MIC,"Klebsiella pneumoniae, KPM4127 (KPM3532 TolQ::M189K/KPC-3), alone",32 µg/mL
same,MIC,"Klebsiella pneumoniae, KPM4128 (KPM3534 TolQ::S31F/KPC-3), alone",32 µg/mL
same,MIC,"Klebsiella pneumoniae, KPM4129 (KPM3532 TolQ::M189K/NDM-1), alone",32 µg/mL
same,MIC,"Klebsiella pneumoniae, KPM4130 (KPM3534 TolQ::S31F/NDM-1), alone",32 µg/mL
same,MIC,"Klebsiella pneumoniae, KPM4235, TolQ::IP(183–1844)PR",32 µg/mL
same,MIC,"Klebsiella pneumoniae, KPM4236, TolQ::TAA at aa 103",32 µg/mL
same,MIC,"Klebsiella pneumoniae, KPM4238, TolQ::S25F",32 µg/mL
same,MIC,"Klebsiella pneumoniae, KPM4239, TolQ::S28F",32 µg/mL
same,MIC,"Klebsiella pneumoniae, KPM4240, TolQ::S25Y",32 µg/mL
same,MIC,"Klebsiella pneumoniae, Klebsiella pneumoniae isolates, read-out: highest MIC observed",64 µg/mL
same,MIC,"Klebsiella pneumoniae, clinical isolate KP1004, OmpK35 NF, OmpK36 FN, read-out: MIC",16 µg/mL
same,MIC,"Klebsiella pneumoniae, clinical isolate KP1070, OmpK35 NF, OmpK36 FN, read-out: MIC",8 µg/mL
same,MIC,"Klebsiella pneumoniae, clinical isolate KP1074, OmpK35 NF, OmpK36 PFN (GD), read-out: MIC",32 µg/mL
same,MIC,"Klebsiella pneumoniae, clinical isolate KP1093, OmpK35 NF, OmpK36 PFN (GD), read-out: MIC",32 µg/mL
same,MIC,"Klebsiella pneumoniae, clinical isolate KP1251, OmpK35 NF, OmpK36 FN, read-out: MIC",16 µg/mL
same,MIC,"Klebsiella pneumoniae, clinical isolate KP1274, OmpK35 FN, OmpK36 FN, read-out: MIC",8 µg/mL
same,MIC,"Klebsiella pneumoniae, clinical isolate KP1463, OmpK35 NF, OmpK36 NF, read-out: MIC",64 µg/mL
same,MIC,"Klebsiella pneumoniae, clinical isolate KP1469, OmpK35 NF, OmpK36 NF, read-out: MIC",64 µg/mL
same,MIC,"Klebsiella pneumoniae, clinical isolate KP1598, OmpK35 NF, OmpK36 PFN (GD), read-out: MIC",64 µg/mL
same,MIC,"Klebsiella pneumoniae, strain KPM1026a measured at 30°C (Fig. 6), read-out: MIC",32 µg/mL
same,MIC,"Klebsiella pneumoniae, strain KPM1026a, wild type, read-out: MIC",16 µg/mL
same,MIC,"Klebsiella pneumoniae, strain KPM1026a, read-out: MIC",16 µg/mL
same,MIC,"Klebsiella pneumoniae, strain KPM1027, ramR, read-out: MIC",16 µg/mL
same,MIC,"Klebsiella pneumoniae, strain KPM1171, lacks porins and overexpresses AcrAB",64 µg/mL
